Tested on: breast cancer cell lines
Experiment: Drug response (GI50, 50% reduction in proliferation) of breast cancer cell lines in culture
Type: cell-based
Details: comparison of sensitivity ranges across cell lines
Source text: Recently, large datasets describing the effects of various drugs on the growth of cancer cells in culture have been generated for the purpose of accelerating the preclinical evaluation of new compounds. One of largest datasets with respect to the number of drugs and breast cancer cell lines describes the effects of ninety (90) different drugs on seventy (70) different breast cancer cell lines. The dataset includes measurements of the concentration of each drug that causes a 50% reduction in the proliferation of cells in culture (i.e., GI50). […] Acquired resistance to chemotherapeutics or targeted agents is recognized and is being studied intensively. […] There appears to be a relatively large amount of intrinsic variability in the responses to drugs by these tumor-derived cell lines. These intrinsic differences in sensitivity, if replicated in breast tumors, could explain some of the variability in responses of tumors to chemotherapeutic drugs or targeted agents.
Another dataset that is statistically analyzed using lasso regression (e.g., a least absolute shrinkage and selection operator [i.e., lasso] regression model) includes responses of the cancer cell lines to various cancer treatment drugs (e.g., 5, 10, 20, 30, 40, 50 or more drugs). In one example described herein, the datasets include responses from approximately 90 drugs on 70 different breast cancer cell lines. As mentioned elsewhere herein, the drug response data are determined by measuring the concentration of drugs or compounds that causes a 50% reduction (e.g., GI50 or IC50 data) in the proliferation of the cells in culture.
Sensitivity is the negative base ten logarithm of the 50% growth inhibition concentration. In the RPPA dataset, which has the most cell lines, the HER2 overexpressing lines are clearly separated from the others. This difference was used to define HER2 overexpression (e.g., represented by open circles), and the same definition of overexpression versus normal expression is used in the other protein datasets and in other Figures herein. For the glycoprotein and MRM datasets, the base ten logarithms are given on the horizontal axes. The quantitative relationships between HER2 expression levels and drug sensitivities in FIG. 2 are shown in scatterplots, in which each point corresponds to a particular cell line. The protein datasets all include cell lines that overexpress HER2. These cell lines are generally clustered on the right sides of the plots as separate groups.

SMILES	range of observed drug sensitivities, in words, relative to another drug
CC(=O)O[C@H]1C(=O)[C@@]2(C)[C@H]([C@H](OC(=O)c3ccccc3)[C@]3(O)C[C@H](OC(=O)[C@H](O)[C@@H](NC(=O)c4ccccc4)c4ccccc4)C(C)=C1C3(C)C)[C@]1(OC(C)=O)CO[C@@H]1C[C@@H]2O [paclitaxel]	much smaller range than the sensitivity of the cell lines to rapamycin
CC(=O)O[C@@]12CO[C@@H]1C[C@H](O)[C@@]1(C)C(=O)[C@H](O)C3=C(C)[C@@H](OC(=O)[C@H](O)[C@@H](NC(=O)OC(C)(C)C)c4ccccc4)C[C@@](O)([C@@H](OC(=O)c4ccccc4)[C@H]21)C3(C)C [docetaxel]	much smaller range than the sensitivity of the cell lines to rapamycin
O=c1[nH]c2ccccc2n1C1CCN(Cc2ccc(-c3nc4cc5[nH]cnc5cc4nc3-c3ccccc3)cc2)CC1 [Sigma AKT1,2 inhibitor]	significantly lower

Same assay, conditions: sensitivity = negative base ten logarithm of the 50% growth inhibition concentration; difference between most and least sensitive cell lines

SMILES	range over which the cell lines varied in sensitivity to the drug
CO[C@H]1C[C@@H]2CC[C@@H](C)[C@@](O)(O2)C(=O)C(=O)N2CCCC[C@H]2C(=O)O[C@H]([C@H](C)C[C@@H]2CC[C@@H](OC(=O)C(C)(CO)CO)[C@H](OC)C2)CC(=O)[C@H](C)/C=C(\C)[C@@H](O)[C@@H](OC)C(=O)[C@H](C)C[C@H](C)/C=C/C=C/C=C/1C [temsirolimus]	3.7 orders of magnitude
CCC1=C[C@@H]2CN(C1)Cc1c([nH]c3ccccc13)[C@@](C(=O)OC)(c1cc3c(cc1OC)N(C)[C@H]1[C@@](O)(C(=O)OC)[C@H](OC(C)=O)[C@]4(CC)C=CCN5CC[C@]31[C@@H]54)C2 [vinorelbine]	approximately four
Nc1ccn([C@@H]2O[C@H](CO)[C@@H](O)C2(F)F)c(=O)n1 [gemcitabine]	approximately four
CO[C@H]1C[C@@H]2CC[C@@H](C)[C@@](O)(O2)C(=O)C(=O)N2CCCC[C@H]2C(=O)O[C@H]([C@H](C)C[C@@H]2CC[C@@H](O)[C@H](OC)C2)CC(=O)[C@H](C)/C=C(\C)[C@@H](O)[C@@H](OC)C(=O)[C@H](C)C[C@H](C)/C=C/C=C/C=C/1C [rapamycin]	4.6 orders of magnitude
CO[C@H]1C[C@@H]2CC[C@@H](C)[C@@](O)(O2)C(=O)C(=O)N2CCCC[C@H]2C(=O)O[C@H]([C@H](C)C[C@@H]2CC[C@@H](OCCO)[C@H](OC)C2)CC(=O)[C@H](C)/C=C(\C)[C@@H](O)[C@@H](OC)C(=O)[C@H](C)C[C@H](C)/C=C/C=C/C=C/1C [everolimus]	3.3 orders of magnitude

Tested on: breast cancer cell lines
Experiment: not given
Details: FIG. 2; HER2 over-expressing versus other breast cancer cell lines; cited from earlier work

SMILES	drug sensitivity of HER2 over-expressing cell lines
CS(=O)(=O)CCNCc1ccc(-c2ccc3ncnc(Nc4ccc(OCc5cccc(F)c5)c(Cl)c4)c3c2)o1 [lapatinib]	comparatively high drug sensitivity
